{
  "source": "the SangsterLogP compilation",
  "data": [
    {"experiment": "method code SF, from DOI: 10.1246/bcsj.55.1489", "details": "pH 7.0", "values": [
      {"smiles": "COc1ccnc(-n2nc(C)cc2OC)n1", "logD": 1.01},
      {"smiles": "COc1cc(C)n(-c2ccncn2)n1", "logD": 2.21},
      {"smiles": "COc1cc(C)n(-c2nc(C)cc(C)n2)n1", "logD": 1.82},
      {"smiles": "Cc1cc(C)nc(-n2c(C)cc(=O)n2C)n1", "logD": 0.51},
      {"smiles": "COc1cc(C)nn1-c1nc(C)cc(C)n1", "logD": 0.73},
      {"smiles": "COc1cc(-n2c(C)cc(=O)n2C)nc(C)n1", "logD": 0.38},
      {"smiles": "COc1cc(-n2nc(C)cc2OC)nc(OC)n1", "logD": 1.86},
      {"smiles": "COc1cc(-n2c(=O)cc(C)n2C)ncn1", "logD": 0.3},
      {"smiles": "COc1cc(C)nn1-c1ccncn1", "logD": 0.5},
      {"smiles": "COc1cc(-n2c(=O)cc(C)n2C)nc(C)n1", "logD": 0.7},
      {"smiles": "COc1nc(C)cc(-n2[nH]c(C)cc2=O)n1", "logD": 1.03},
      {"smiles": "Cc1cc(-n2c(=O)cc(C)n2C)nc(C)n1", "logD": 0.24},
      {"smiles": "COc1cc(-n2nc(C)cc2OC)ncn1", "logD": 1.53}
    ]}
  ]
}
